For data set [1] the following is noted: Liquid; for mass density: 293.15 K, 101.33 kPa, Densimeter; for Normal boiling temperature: Ebulliometric method (Recirculating still).
Data set [2] in a line: refractive index (Na D-line) (dimensionless). To be noted: 293.15 K; 101.33 kPa; Liquid; Standard Abbe refractometry.

Numbers after ± are expanded uncertainties.

As to `COCCO` [2-methoxyethan-1-ol], in data set [1], the mass density came to 964.74 ± 0.12 kg/m3 and the Normal boiling temperature came to 124.48 ± 0.2 °C. For the same compound, the refractive index in data set [2] was 1.40234 ± 0.00034.
On the same counts, the results for `C[S+](C)[O-]` [dimethyl sulfoxide] are 1100.36 ± 0.14 kg/m3, 189.03 ± 0.2 °C and 1.47987 ± 0.00034.
Consider `Cc1ccccc1` [toluene], for which, in data set [1], the mass density worked out at 867.02 ± 0.11 kg/m3 and the Normal boiling temperature was 110.58 ± 0.2 °C. The refractive index in data set [2] is 1.49678 ± 0.00033.

By mass density is commonly meant mass per unit of volume. In general, refractive index refers to the speed of light in vacuum divided by its phase velocity in the sample.

The record behind these values is the NIST ThermoML archive (doi:10.1016/j.fluid.2014.04.025).
